Data reported in ChEMBL document CHEMBL4368853 (Medchemcomm, 2018).

Legend:
[1] = molecular target: T1, Bromodomain-containing protein 4 (Homo sapiens, UniProt O60885); assay: Inhibition of biotin-labelled histone peptide binding to His-tagged BRD4 (unknown origin) expressed in Escherichia coli after 30 mins by TR-FRET assay
[2] = tested on: OPM-2; assay: Antitumor activity against human OPM2 cells xenografted in SCID Beige mouse assessed as tumor growth inhibition at 5 mg/kg, po administered once daily for 21 days relative to control; format: functional; conditions: OPM-2, po, 504 h, read-out: TGI
[3] = tested on: MX1; assay: Antiproliferative activity against human MX1 cells after 72 hrs by CellTiter-Glo assay; format: functional, cell-based; conditions: MX1, 72 h
[4] = molecular target: T1, Bromodomain-containing protein 4; assay: Inhibition of His-tagged BRD4 bromodomain 2 (E352 to M457 residues) (unknown origin) by Alexa-647 conjugated probe based TR-FRET assay; format: single protein
[5] = molecular target: T1, Bromodomain-containing protein 4; assay: Inhibition of His-tagged BRD4 bromodomain 1 (K57 to E168 residues) (unknown origin) by Alexa-647 conjugated probe based TR-FRET assay; format: single protein
[6] = Oral bioavailability in monkey; format: ADME, organism-based, Macaca mulatta; conditions: rhesus monkey, in vivo
[7] = tested on: CHP-212; assay: Antitumor activity against human CHP212 cells xenografted in Crl:CD-1-Foxn1 nude mouse assessed as tumor growth inhibition at 15 mg/kg, po administered once daily for 42 days relative to control; format: functional; conditions: CHP-212, po, 1008 h, read-out: TGI
[8] = Oral bioavailability in dog; format: ADME, organism-based, Canis lupus familiaris; conditions: in vivo
[9] = tested on: MV4-11; assay: Antiproliferative activity against human MV4-11 cells after 72 hrs by CellTiter-Glo assay; format: functional, cell-based; conditions: MV4-11, 72 h
[10] = molecular target: T1, Bromodomain-containing protein 4; assay: Inhibition of recombinant human N-terminal His-tagged/C-terminal FLAG-tagged BRD4 bromodomain 1 (44 to 168 residues) expressed in Escherichia coli using histone peptide as substrate preincubated for 15 mins followed by substrate addition and measured after 60 mins
[11] = Antiproliferative activity against human CLL cells assessed as inhibition of CpG-induced cell proliferation treated for 4 hrs followed by compound washout for 44 to 48 hrs by MTS assay; format: functional, cell-based
[12] = molecular target: T1, Bromodomain-containing protein 4; assay: Inhibition of BRD4 in human MM1S cells assessed as down regulation of c-Myc expression after 1 hr by Western blot analysis
[13] = molecular target: T1, Bromodomain-containing protein 4; assay: Inhibition of acetyl-histone H4 peptide binding to His6-tagged BRD4 (1 to 477 residues) (unknown origin) after 35 mins by TR-FRET assay
[14] = tested on: HL-60; assay: Growth inhibition of human HL60 cells at 10 uM after 48 hrs by sulforhodamine B assay; format: functional; conditions: HL-60, 48 h, read-out: GI
[15] = molecular target: T1, Bromodomain-containing protein 4; assay: Binding affinity to BRD4 bromodomain 1 (unknown origin) by isothermal titration calorimetry
[16] = molecular target: T1, Bromodomain-containing protein 4
Description: Inhibition of biotinylated Acetyl-Histone H4 (Lys5, 8, 12, 16) peptide binding to GST-tagged BRD4 bromodomain 1 (44 to 168 residues) (unknown origin) after 30 mins by Alphascreen method

[17] = molecular target: Bromodomain-containing protein 4 (Homo sapiens, UniProt O60885, Y97A); assay: Inhibition of recombinant human N-terminal His6-tagged BRD4 Y97A mutant (1 to 477 residues) expressed in Escherichia coli after 30 mins by Alexa Fluor647 conjugated probe based TR-FRET assay
[18] = tested on: MDA-MB-453; assay: Antitumor activity against human MDA-MB-453 cells xenografted in SCID mouse assessed as tumor growth inhibition at 5 mg/kg, iv; conditions: MDA-MB-453, iv, read-out: TGI
[19] = tested on: MDA-MB-453; assay: Antiproliferative activity against human MDA-MB-453 cells; format: functional, cell-based

COc1ccc2c(ncc3nc(N4CCOCC4)n([C@H](C)COC(F)F)c32)c1-c1c(C)noc1C
IC50 [1]: 10 nM

COc1ccc2c(ncc3nc(C4CCC(F)(F)CC4)n([C@H](C)COC(F)F)c32)c1-c1c(C)noc1C
IC50 [1]: 10 to 21 nM

Cn1cc2c3c(c[nH]c(=O)c31)CN(c1ccc(F)cc1F)c1ccc(CS(C)(=O)=O)cc1-2
inhibition in vivo at 5 mg/kg [2]: 81%
EC50 [3]: 16 nM
IC50 [4]: 2 nM
IC50 [5]: 1.8 nM

CC(=O)N1c2ccc(-c3ccc(C(=O)O)cc3)cc2[C@H](Nc2ccc(Cl)cc2)C[C@@H]1C
bioavailability [6]: 100%
inhibition in vivo at 15 mg/kg [7]: 82%
bioavailability [8]: 80%

CC[C@@H]1C(=O)Nc2ccc(-c3c(C)noc3C)cc2N1Cc1ccccc1
IC50 [9]: 258 nM
IC50 [10]: 70 nM

Cc1noc(C)c1-c1cnc2c(-c3ccc(C(=O)O)cc3)cn([C@@H](C)c3ccccn3)c2c1 [PLX-51107]
IC50 [11]: 156 to 10000 nM

COc1nnc2ccc(N3CCC(c4ccc(OCCN5CCN(C)C(=O)[C@H]5C)cc4)CC3)nn12 [AZD-5153]
IC50 [12]: 5.4 nM

CC(=O)N1CC(n2cc(C3CC3)c3c2C(c2ccc(Cl)cc2)N(c2cc(C)c4nnn(C)c4n2)C3=O)C1 (configuration not stated)
IC50 [13]: < 11 nM

CCc1c(C(=O)Nc2cc(S(=O)(=O)N(CC)CC)ccc2O)[nH]c(C)c1C(C)=O
inhibition of growth at 10 µM [14]: 65%
Kd [15]: 237 nM

CCN1C(=O)C(C)(C)c2cc3nc(-c4cc(C)c(=O)n(C)c4)n([C@@H](C)c4ccccc4)c3cc21
IC50 [16]: 1.3 nM

CC(=O)N1c2ccc(-c3ccc(C#N)cc3)cc2[C@H](Nc2ncccc2F)[C@@H](C)[C@@H]1C1CC1
IC50 [17]: < 100 nM

Cc1nn(C2CC2)c2c1[C@@H](c1ccc(Cl)cc1)N(c1cc(C)c3nnc(C)n3n1)C2=O
IC50 [13]: < 11 nM

CCn1nc(C2CC2)cc1Nc1nc(C(=O)NCCCOCCOCCOCCCNc2cccc3c2CN(C2CCC(=O)NC2=O)C3=O)nc2[nH]c3cc(-c4c(C)noc4C)c(OC)cc3c12 (configuration not stated)
inhibition in vivo at 5 mg/kg [18]: 85%
IC50 [19]: < 10 nM
IC90 [19]: < 100 nM
